Reference: ChEMBL document CHEMBL3817798, “Cholecystokinin-1 receptor antagonists: 5-hydroxy-5-aryl-pyrrol-2-ones as anticancer agents” (Medchemcomm, 2016)
Calls of active or inactive are those of the source. No cut-off for these calls is given here.

Assays:
[1] = Displacement of [125]I-CCK-8 from CCK-B receptor in guinea pig cerebral cortex after 2 hrs by gamma counting; type: tissue-based, Cavia porcellus
[2] = molecular target: T1, Cholecystokinin receptor type A (Rattus norvegicus, UniProt P30551); assay: Displacement of [125]I-CCK-8 from CCK-A receptor in rat pancreatic membrane after 2 hrs by gamma counting; type: cell membranes
T1 sequence (P30551 whole entry): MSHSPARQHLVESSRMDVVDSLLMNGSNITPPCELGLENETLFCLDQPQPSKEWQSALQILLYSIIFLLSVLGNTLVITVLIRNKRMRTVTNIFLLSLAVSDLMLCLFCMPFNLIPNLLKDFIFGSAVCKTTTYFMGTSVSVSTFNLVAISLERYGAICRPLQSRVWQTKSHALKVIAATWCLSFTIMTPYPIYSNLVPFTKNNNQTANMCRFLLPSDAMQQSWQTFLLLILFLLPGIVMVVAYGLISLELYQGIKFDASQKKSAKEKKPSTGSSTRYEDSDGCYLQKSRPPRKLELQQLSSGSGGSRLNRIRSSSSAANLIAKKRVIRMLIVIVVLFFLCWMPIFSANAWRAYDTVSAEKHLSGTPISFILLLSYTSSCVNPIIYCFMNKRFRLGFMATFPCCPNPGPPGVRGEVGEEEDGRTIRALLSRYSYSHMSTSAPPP

[3] = tested on: MAC16; assay: Antimetastatic activity against mouse MAC16 cells xenografted in po dosed NSG mouse assessed as reduction of cell migration to lung measured thrice weekly after compound dosage; type: functional, organism-based
[4] = Antiproliferative activity against human PANC cells assessed as reduction in cell viability after 3 days by MTT assay; type: functional, cell-based; conditions: 72 h
[5] = tested on: MAC16; assay: Antitumor activity against mouse MAC16 cells xenografted in po dosed NSG mouse measured thrice weekly after compound dosage; type: functional, organism-based
[6] = tested on: MAC16; assay: Antiproliferative activity against mouse MAC16 cells assessed as reduction in cell viability after 3 days by MTT assay; type: functional, cell-based; conditions: MAC16, 72 h
[7] = tested on: MiaPaCa; assay: Antitumor activity against human MiaPaCa cells xenografted in po dosed NSG mouse measured thrice weekly after compound dosage; type: functional, organism-based
[8] = Antiproliferative activity against human MiaPaCa cells assessed as reduction in cell viability after 3 days by MTT assay; type: functional, cell-based; conditions: MIA PaCa-2, 72 h
[9] = tested on: MAC13; assay: Antiproliferative activity against mouse MAC13 cells assessed as reduction in cell viability after 3 days by MTT assay; type: functional, cell-based; conditions: MAC13, 72 h
[10] = Antiproliferative activity against human U373MG cells assessed as reduction in cell viability after 3 days by MTT assay; type: functional, cell-based, U-373MG ATCC; conditions: U373 MG, 72 h
[11] = Potency index, ratio of lorglumide IC50 to compound IC50 for human MiaPaCa cells; type: functional
[12] = tested on: AGS; assay: Antiproliferative activity against human AGS cells assessed as reduction in cell viability after 3 days by MTT assay; type: functional, cell-based; conditions: 72 h
[13] = Oral bioavailability in rat; type: ADME, organism-based; conditions: in vivo
[14] = Half life in rat; type: ADME, organism-based; conditions: in vivo
[15] = molecular target: T2, Cholecystokinin receptor type A (Rattus norvegicus) (UniProt P30551); assay: Antagonist activity at CCK1 receptor in rat duodenum assessed as inhibition of electrically stimulated contraction
T2 sequence (whole entry): T1 sequence (P30551 whole entry)

[16] = molecular target: T3, Cholecystokinin receptor type A (Cavia porcellus) (UniProt Q63931); assay: Insurmountable antagonist activity at CCK1 receptor in guinea pig bladder assessed as inhibition of CCK8s induced contraction preincubated 10 mins followed by CCK8s addition
T3 sequence (whole entry): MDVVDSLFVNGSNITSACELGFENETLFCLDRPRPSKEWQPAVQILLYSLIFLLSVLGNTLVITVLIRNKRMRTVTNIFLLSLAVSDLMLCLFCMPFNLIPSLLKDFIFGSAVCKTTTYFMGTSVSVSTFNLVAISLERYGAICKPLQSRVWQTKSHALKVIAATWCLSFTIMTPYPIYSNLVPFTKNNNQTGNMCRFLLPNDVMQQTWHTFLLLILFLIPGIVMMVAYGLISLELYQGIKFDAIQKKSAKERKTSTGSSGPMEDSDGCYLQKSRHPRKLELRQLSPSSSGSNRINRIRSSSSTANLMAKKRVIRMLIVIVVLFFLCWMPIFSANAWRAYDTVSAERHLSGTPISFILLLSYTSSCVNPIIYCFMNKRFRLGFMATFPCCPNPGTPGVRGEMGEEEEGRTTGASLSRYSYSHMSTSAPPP

[17] = molecular target: T4, Cholecystokinin receptor type A (Homo sapiens) (UniProt P32238); assay: […] activity at CCK1 receptor (unknown origin)
T4 sequence (whole entry): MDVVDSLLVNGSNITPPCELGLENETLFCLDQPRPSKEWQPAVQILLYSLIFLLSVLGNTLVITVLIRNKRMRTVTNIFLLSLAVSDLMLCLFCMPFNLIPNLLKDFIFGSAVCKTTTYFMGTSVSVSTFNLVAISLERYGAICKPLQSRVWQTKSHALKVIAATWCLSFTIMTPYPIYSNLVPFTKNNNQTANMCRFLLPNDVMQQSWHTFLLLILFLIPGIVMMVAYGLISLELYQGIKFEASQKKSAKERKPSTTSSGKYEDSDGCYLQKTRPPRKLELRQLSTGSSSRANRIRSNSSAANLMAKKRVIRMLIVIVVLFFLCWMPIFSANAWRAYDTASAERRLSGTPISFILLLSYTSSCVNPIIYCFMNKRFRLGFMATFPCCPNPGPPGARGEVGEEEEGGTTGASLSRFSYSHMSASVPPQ

| SMILES | IC50 [1] [nM] | IC50 [2] [nM] | IC50 [12] [nM] | IC50 [4] [nM] | IC50 [6] [nM] | IC50 [8] [nM] | IC50 [9] [nM] | IC50 [10] [nM] | other results |
| --- | --- | --- | --- | --- | --- | --- | --- | --- | --- |
| Cc1cccc(NC(=O)N[C@@H]2N=C(c3ccccc3)c3ccccc3N(C)C2=O)c1 [L-365260] |  |  | 675 | > 1000 | > 5000 | > 5000 | > 5000 | 541 |  |
| CCCCCCN1C(=O)C=C(Cl)C1(O)c1ccc(Cl)cc1 (stereo not drawn) | > 10000 | 3600 |  |  |  |  |  |  |  |
| CCCCCN(CCCCC)C(=O)C(CCC(=O)O)NC(=O)c1ccc(Cl)c(Cl)c1 (stereo not drawn) [LORGLUMIDE SODIUM] | > 10000 | 170 | 289 | 316 | 861 | 425 | 421 | > 5000 |  |
| O=C1C=C(Cl)C(O)(c2ccccc2)N1C1CC1 (stereo not drawn) | > 10000 | 7500 |  |  |  |  |  |  |  |
| CN1C(=O)C=C(Cl)C1(O)c1ccccc1 (stereo not drawn) | > 10000 | 2500 |  |  |  |  |  |  |  |
| O=C1C=C(Cl)C(O)(c2ccc(Cl)cc2)N1C1CC1 (stereo not drawn) | > 10000 | 4000 |  |  |  |  |  |  |  |
| CN1C(=O)C(NC(=O)c2cc3ccccc3[nH]2)N=C(c2ccccc2)c2ccccc21 (stereo not drawn) |  |  | > 5000 | 480 | 1000 | 1200 | 1100 | > 5000 | Activity [17]: Active |
| CCCCCCN1C(=O)C=C(Cl)C1(O)c1ccccc1 (stereo not drawn) | > 10000 | 4500 |  |  |  |  |  |  |  |
| O=C1C=C(Cl)C(O)(c2ccccc2)N1c1ccccc1 (stereo not drawn) | > 10000 | > 10000 |  |  |  |  |  |  |  |
| O=C1C=C(Cl)C(O)(c2ccccc2)N1C1CCCCC1 (stereo not drawn) | > 10000 | > 10000 |  |  |  |  |  |  |  |

Now from value to compound, other results behind:

| IC50 [1] [nM] | IC50 [2] [nM] | IC50 [12] [nM] | SMILES | IC50 [4] [nM] | IC50 [6] [nM] | IC50 [8] [nM] | IC50 [9] [nM] | IC50 [10] [nM] | other results |
| --- | --- | --- | --- | --- | --- | --- | --- | --- | --- |
| 3700 | 300 |  | CC(C)N1C(=O)C=C(Cl)C1(O)c1ccc(Cl)cc1 (stereo not drawn) |  |  |  |  |  |  |
| 1200 | 20 | 262 | CC(C)CN1C(=O)C=C(Cl)C1(O)c1ccccc1 (stereo not drawn) | 27 | 96 | 15 | 536 | 765 | Activity [3]: Active; TGI [5]: Active; TGI [7]: Active; Ratio IC50 [11]: 20 |
| 840 |  |  | O=C1C=C(Cl)C(O)(c2ccccc2)N1C1CCCC1 (stereo not drawn) |  |  |  |  |  |  |
| > 10000 | 2000 |  | CN1C(=O)C=C(Cl)C1(O)c1ccc(Cl)cc1 (stereo not drawn) |  |  |  |  |  |  |
| 900 | 200 |  | CC(C)N1C(=O)C=C(Cl)C1(O)c1ccccc1 (stereo not drawn) |  |  |  |  |  |  |
| 10000 |  |  | O=C1C=C(Cl)C(O)(c2ccc(Cl)cc2)N1C1CCCC1 (stereo not drawn) |  |  |  |  |  |  |
| 22 | 800 | 53 | O=C1C=C(Cl)C(O)(c2ccccc2)N1Cc1ccccc1 (stereo not drawn) | 674 | > 1000 | 230 | > 1000 | 23 |  |
| 750 | 12 | 222 | CC(C)CN1C(=O)C=C(Cl)C1(O)c1ccc(F)cc1 (stereo not drawn) | 18 | 76 | 11 | 508 | 665 | Activity [3]: Active; bioavailability [13]: 98%; TGI [5]: Active; TGI [7]: Active; half-life [14]: 210 min |
| 400 | 8 | 242 | CC(C)CN1C(=O)C=C(Cl)C1(O)c1ccc(Cl)cc1 (stereo not drawn) | 22 | 86 | 13 | 526 | 475 | inhibition [15]: Dose-dependent effect; inhibition [16]: Dose-dependent effect |
| 900 | 120 |  | CC(C)(C)N1C(=O)C=C(Cl)C1(O)c1ccccc1 (stereo not drawn) |  |  |  |  |  |  |
